This is an account of results in paper PMC10776879, “In vitro screening of topical formulation excipients for epithelial toxicity in cancerous and non-cancerous cell lines” (EXCLI Journal, 2023).

Molecules are shown by their SMILES. Values after ≈ are worked out from the molar mass of the structure shown.

Common to all, as to assay: MTT cell viability assay
Holding throughout (type): cell-based

The test system of assay [1] is HaCaT human keratinocytes. The following applies: Homo sapiens, 24 h exposure, read-out: IC50 (μg/ml) [Mean, Range] HaCaT, MTT. On the procedure:
(§1) Cells were seeded into the 96-well cell culture plates in 100 μl of complete culture medium at the initial density of 2x10^4 (cells/ml). Cells were incubated under 5 % CO2 at 37 °C for 24 hours for adhering to the wells and medium was then replaced with 100 μl of fresh medium containing excipient solution at the required final concentration. Each concentration was tested in minimum of 5 replicates and control cells were exposed to the culture medium only.
(§2) After cell incubation for 24 h, the excipient-containing medium was removed, and 100 μl of MTT in PBS (5 mg/ml) diluted 1:10 in medium was then added in the dark. Plates were further incubated for 2-3 h, after which time the medium was removed and the purple formazan product was dissolved by adding 200 μl of DMSO to each well. Plates were then placed in a shaker for 5 min at room temperature and the absorbance of the resulting solutions was measured at 570 nm using a microplate reader (Multiskan™ FC Microplate Photometer). The effect of each treatment was calculated as the percentage of tetrazolium salt reduction by viable cells against the negative control (cells treated with culture medium only).
(§3) To assess the excipients' cytotoxicity, the dose-response effect of each excipient was measured against the cell lines. The cytotoxicity value for each concentration of the excipients was expressed as percentage of viability against the untreated control wells (the optical density of untreated cells was set at 100 % viability) to construct dose-response curves.
(§4) All IC50 values were expressed as µg/ml. The percentage viability was calculated as follows: […]

Another assay deals with D24 human melanoma cells. The following applies: Homo sapiens, 24 h exposure, read-out: IC50 (μg/ml) [Mean, Range] D24, MTT. On the procedure: as §1, §2, §3, §4
The subject of assay [2] is WM164 human melanoma cells. The note with it: Homo sapiens, 24 h exposure, read-out: IC50 (μg/ml) [Mean, Range] WM164, MTT. On the procedure:
as §1, §2, §3, §4

The subject of assay [3] is WM1366 human melanoma cells. The note with it: Homo sapiens, 24 h exposure, read-out: IC50 (μg/ml) [Mean, Range] WM1366, MTT. On the procedure: as §1, §2, §3, §4

As to `CCOCCOCCO` [Transcutol®, diethylene glycol monoethyl ether], the IC50 stood at 3.32 µg/mL (≈ 24.7 µM) in assay [1], 4.88 µg/mL (≈ 36.4 µM) with D24 human melanoma cells, 2.12 µg/mL (≈ 15.8 µM) in assay [2] and 3.49 µg/mL (≈ 26 µM) in assay [3].
